# Test results published in patent publication US20240424109A1, “GLUCOSE-[…] CONJUGATES COMPRISING A TETRA-VALENT SUGAR CLUSTER FOR TREATMENT OF DIABETES” (Merck Sharp & Dohme LLC, priority 2021, published 2024).
# Key:
# [1] = target: T1, human insulin receptor type B (IR(B)) (Homo sapiens, UniProt P06213); test: Insulin receptor competition binding assay (125[I]-insulin; whole cell or SPA)
# T1 construct: expressed in transfected cells; host or cells: CHO cells (G418 selection)
# Procedure: Method D: IR binding assay was run in a scintillation proximity assay (SPA) in 384-well format using cell membranes prepared from CHO cells overexpressing human IR(B) grown in F12 media containing 10% FBS and antibiotics (G418, Penicillin/[…]).
# (§1) The in vitro biological activities towards insulin receptor (IR) were measured by either ligand competition assays or functional phosphorylation assays, as described above, labeled as following: Method A: IR phosphorylation assay based on 96-well; Method B: IR phosphorylation assay based on 384-well with automated liquid dispense; Method C: cell-based IR binding assay; Method D: SPA IR binding assay method E; Method E: MRC1 assay was performed in a 96-well plate; Method F: MRC1 assay was performed in a 384-well plate.
# [2] = target: T2, Human macrophage mannose receptor 1 (MRC1) (Homo sapiens, UniProt P22897); test: Human macrophage mannose receptor 1 (MRC1) competition binding assay; conditions: competition against Eu-labeled mannosylated-BSA
# T2 sequence (P22897 19-1456): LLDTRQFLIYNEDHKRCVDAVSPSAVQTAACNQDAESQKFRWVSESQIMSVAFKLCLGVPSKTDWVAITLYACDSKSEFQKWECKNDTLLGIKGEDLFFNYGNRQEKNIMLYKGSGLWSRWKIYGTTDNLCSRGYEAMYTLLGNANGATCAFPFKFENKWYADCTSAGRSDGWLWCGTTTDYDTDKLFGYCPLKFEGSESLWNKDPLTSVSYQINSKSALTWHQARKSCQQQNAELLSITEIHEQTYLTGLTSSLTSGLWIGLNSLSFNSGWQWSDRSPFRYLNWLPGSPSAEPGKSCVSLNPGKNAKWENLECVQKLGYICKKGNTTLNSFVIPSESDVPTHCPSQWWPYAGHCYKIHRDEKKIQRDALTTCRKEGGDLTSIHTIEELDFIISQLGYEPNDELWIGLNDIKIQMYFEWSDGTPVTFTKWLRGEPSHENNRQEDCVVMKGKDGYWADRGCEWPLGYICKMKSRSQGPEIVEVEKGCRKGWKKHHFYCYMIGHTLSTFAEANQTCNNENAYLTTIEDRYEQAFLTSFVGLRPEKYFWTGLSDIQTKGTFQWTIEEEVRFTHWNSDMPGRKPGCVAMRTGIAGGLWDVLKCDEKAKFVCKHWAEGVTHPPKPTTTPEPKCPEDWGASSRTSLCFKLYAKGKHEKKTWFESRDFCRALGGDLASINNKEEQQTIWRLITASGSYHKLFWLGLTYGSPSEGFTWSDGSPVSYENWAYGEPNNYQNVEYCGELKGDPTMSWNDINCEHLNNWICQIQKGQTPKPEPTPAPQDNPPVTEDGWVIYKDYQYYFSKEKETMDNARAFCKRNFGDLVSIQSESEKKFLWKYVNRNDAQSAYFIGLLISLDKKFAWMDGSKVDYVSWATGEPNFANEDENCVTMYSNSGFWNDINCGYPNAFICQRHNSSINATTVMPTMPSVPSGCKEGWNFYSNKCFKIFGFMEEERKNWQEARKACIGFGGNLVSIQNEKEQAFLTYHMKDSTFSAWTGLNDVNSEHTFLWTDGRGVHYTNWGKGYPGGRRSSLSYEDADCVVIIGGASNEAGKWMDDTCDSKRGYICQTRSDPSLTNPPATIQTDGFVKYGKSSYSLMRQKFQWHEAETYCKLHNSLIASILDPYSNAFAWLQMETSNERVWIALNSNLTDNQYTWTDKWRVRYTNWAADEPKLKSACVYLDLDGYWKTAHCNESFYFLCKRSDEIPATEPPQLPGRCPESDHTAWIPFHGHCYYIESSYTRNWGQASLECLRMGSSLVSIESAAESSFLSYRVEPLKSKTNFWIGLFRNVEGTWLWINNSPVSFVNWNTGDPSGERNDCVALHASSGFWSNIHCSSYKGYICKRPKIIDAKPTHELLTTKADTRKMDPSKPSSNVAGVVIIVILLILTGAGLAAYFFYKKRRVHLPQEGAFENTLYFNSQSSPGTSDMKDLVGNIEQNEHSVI
# Procedure: The competition binding assay for MRC1 utilized a ligand, mannosylated-BSA labeled with the DELFIA Eu-N1-ITC reagent (labeling kit for europium labeling of proteins and polypetides for use in dissociation-enhanced time-resolved fluorometric assay), as reported in the literature. Assay was performed either in a 96-well plate with 100 μL well volume (Method E) or in a 384-well plate with 25 μL well volume (Method F). […] The antibody was incubated in the plate for 1 h at rt with shaking. The plate was washed with wash buffer 3-5 times followed by addition of MRC1 (2 ng/μl final concentration) in PBS containing 1% stabilizer BSA. The plate was incubated at rt with gentle shaking for 1 h. The plate was washed three times with wash buffer. […]
# as §1
# T1 sequence (P06213 28-758 limits assumed): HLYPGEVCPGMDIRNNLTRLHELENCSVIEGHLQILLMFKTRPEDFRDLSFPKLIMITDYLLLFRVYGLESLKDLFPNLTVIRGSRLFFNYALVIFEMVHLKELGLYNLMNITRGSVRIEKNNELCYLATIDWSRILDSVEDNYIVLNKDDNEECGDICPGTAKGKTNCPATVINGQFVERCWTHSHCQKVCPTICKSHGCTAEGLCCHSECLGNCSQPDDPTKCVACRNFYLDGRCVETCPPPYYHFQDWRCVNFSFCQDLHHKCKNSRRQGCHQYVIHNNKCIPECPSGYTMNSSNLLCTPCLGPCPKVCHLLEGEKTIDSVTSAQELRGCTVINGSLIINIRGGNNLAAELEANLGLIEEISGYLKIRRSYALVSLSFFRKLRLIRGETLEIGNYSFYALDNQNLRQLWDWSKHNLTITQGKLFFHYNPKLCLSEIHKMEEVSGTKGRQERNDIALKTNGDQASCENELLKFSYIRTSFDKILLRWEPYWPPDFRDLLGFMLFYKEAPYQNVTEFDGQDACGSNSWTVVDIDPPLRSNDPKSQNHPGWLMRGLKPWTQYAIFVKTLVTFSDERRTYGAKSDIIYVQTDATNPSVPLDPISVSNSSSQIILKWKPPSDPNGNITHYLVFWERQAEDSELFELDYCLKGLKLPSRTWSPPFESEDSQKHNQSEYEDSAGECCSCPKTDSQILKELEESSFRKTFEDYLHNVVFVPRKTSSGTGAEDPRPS
# T1 sequence (P06213 763-1382 limits assumed): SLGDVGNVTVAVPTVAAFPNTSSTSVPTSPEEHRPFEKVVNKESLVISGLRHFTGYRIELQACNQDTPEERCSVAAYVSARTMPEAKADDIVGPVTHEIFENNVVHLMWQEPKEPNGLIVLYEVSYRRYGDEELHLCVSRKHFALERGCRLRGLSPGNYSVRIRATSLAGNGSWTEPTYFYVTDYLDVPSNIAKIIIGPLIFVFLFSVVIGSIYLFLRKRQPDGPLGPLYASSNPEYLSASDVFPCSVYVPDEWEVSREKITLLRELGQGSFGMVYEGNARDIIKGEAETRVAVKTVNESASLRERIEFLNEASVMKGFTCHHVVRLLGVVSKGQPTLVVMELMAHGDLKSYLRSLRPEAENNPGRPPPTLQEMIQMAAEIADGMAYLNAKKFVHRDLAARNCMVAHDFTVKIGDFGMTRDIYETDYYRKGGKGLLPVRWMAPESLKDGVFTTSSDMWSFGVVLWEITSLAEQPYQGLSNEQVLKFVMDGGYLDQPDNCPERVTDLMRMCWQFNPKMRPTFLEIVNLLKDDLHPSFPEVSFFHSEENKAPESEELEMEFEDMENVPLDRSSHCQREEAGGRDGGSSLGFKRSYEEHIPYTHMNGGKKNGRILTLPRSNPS
Structure (SMILES),IC50 [1] [nM],IC50 [2] [nM]
CC[C@H](C)[C@H](NC(=O)CN)C(=O)N[C@H](C(=O)N[C@@H](CCC(=O)O)C(=O)N[C@@H](CCC(N)=O)C(=O)N[C@H]1CSSC[C@@H]2NC(=O)[C@H]([C@@H](C)CC)NC(=O)[C@H](CO)NC(=O)[C@H]([C@@H](C)O)NC(=O)[C@H](CSSC[C@H](NC(=O)[C@H](CC(C)C)NC(=O)[C@H](Cc3c[nH]cn3)NC(=O)[C@H](CCC(N)=O)NC(=O)[C@H](CC(N)=O)NC(=O)[C@@H](NC(=O)[C@H](Cc3ccccc3)NC(=O)CCCCC(=O)N(CC(=O)N(CCO[C@H]3O[C@H](CO)[C@@H](O)[C@H](O)[C@@H]3O)CCO[C@H]3O[C@H](CO)[C@@H](O)[C@H](O)[C@@H]3O)CC(=O)N(CCO[C@H]3O[C@H](CO)[C@@H](O)[C@H](O)[C@@H]3O)CCO[C@H]3O[C@H](CO)[C@@H](O)[C@H](O)[C@@H]3O)C(C)C)C(=O)NCC(=O)N[C@@H](CO)C(=O)N[C@@H](Cc3c[nH]cn3)C(=O)N[C@@H](CC(C)C)C(=O)N[C@@H](C(C)C)C(=O)N[C@@H](CCC(=O)O)C(=O)N[C@@H](C)C(=O)N[C@@H](CC(C)C)C(=O)N[C@@H](Cc3ccc(O)cc3)C(=O)N[C@@H](CC(C)C)C(=O)N[C@@H](C(C)C)C(=O)N[C@H](C(=O)NCC(=O)N[C@@H](CCC(=O)O)C(=O)N[C@@H](CCCNC(=N)N)C(=O)NCC(=O)N[C@@H](Cc3ccccc3)C(=O)N[C@@H](Cc3ccccc3)C(=O)N[C@@H](Cc3ccc(O)cc3)C(=O)N[C@H](C(=O)N3CCC[C@H]3C(=O)N[C@@H](CCCCNC(=O)CCCCC(=O)N(CC(=O)N(CCO[C@H]3O[C@H](CO)[C@@H](O)[C@H](O)[C@@H]3O)CCO[C@H]3O[C@H](CO)[C@@H](O)[C@H](O)[C@@H]3O)CC(=O)N(CCO[C@H]3O[C@H](CO)[C@@H](O)[C@H](O)[C@@H]3O)CCO[C@H]3O[C@H](CO)[C@@H](O)[C@H](O)[C@@H]3O)C(=O)N[C@H](C(=O)O)[C@@H](C)O)[C@@H](C)O)CSSC[C@@H](C(=O)N[C@@H](CC(N)=O)C(=O)O)NC(=O)[C@H](Cc3ccc(O)cc3)NC(=O)[C@H](CC(N)=O)NC(=O)[C@H](CCC(=O)O)NC(=O)[C@H](CC(C)C)NC(=O)[C@H](CCC(N)=O)NC(=O)[C@H](Cc3ccc(O)cc3)NC(=O)[C@H](CC(C)C)NC(=O)[C@H](CO)NC2=O)NC1=O)C(C)C [IOC-31],0.9,–
CC[C@H](C)[C@H](NC(=O)CN)C(=O)N[C@H](C(=O)N[C@@H](CCC(=O)O)C(=O)N[C@@H](CCC(N)=O)C(=O)N[C@H]1CSSC[C@@H]2NC(=O)[C@H]([C@@H](C)CC)NC(=O)[C@H](CO)NC(=O)[C@H]([C@@H](C)O)NC(=O)[C@H](CSSC[C@H](NC(=O)[C@H](CC(C)C)NC(=O)[C@H](Cc3c[nH]cn3)NC(=O)[C@H](CCC(N)=O)NC(=O)[C@H](CC(N)=O)NC(=O)[C@@H](NC(=O)[C@H](Cc3ccccc3)NC(=O)CCCCCNC(=O)CCCCC(=O)N(CC(=O)N(CCO[C@H]3O[C@H](CO)[C@@H](O)[C@H](O)[C@@H]3O)CCO[C@H]3O[C@H](CO)[C@@H](O)[C@H](O)[C@@H]3O)CC(=O)N(CCO[C@H]3O[C@H](CO)[C@@H](O)[C@H](O)[C@@H]3O)CCO[C@H]3O[C@H](CO)[C@@H](O)[C@H](O)[C@@H]3O)C(C)C)C(=O)NCC(=O)N[C@@H](CO)C(=O)N[C@@H](Cc3c[nH]cn3)C(=O)N[C@@H](CC(C)C)C(=O)N[C@@H](C(C)C)C(=O)N[C@@H](CCC(=O)O)C(=O)N[C@@H](C)C(=O)N[C@@H](CC(C)C)C(=O)N[C@@H](Cc3ccc(O)cc3)C(=O)N[C@@H](CC(C)C)C(=O)N[C@@H](C(C)C)C(=O)N[C@H](C(=O)NCC(=O)N[C@@H](CCC(=O)O)C(=O)N[C@@H](CCCNC(=N)N)C(=O)NCC(=O)N[C@@H](Cc3ccccc3)C(=O)N[C@@H](Cc3ccccc3)C(=O)N[C@@H](Cc3ccc(O)cc3)C(=O)N[C@H](C(=O)N3CCC[C@H]3C(=O)N[C@@H](CCCCNC(=O)CCCCCNC(=O)CCCCC(=O)N(CC(=O)N(CCO[C@H]3O[C@H](CO)[C@@H](O)[C@H](O)[C@@H]3O)CCO[C@H]3O[C@H](CO)[C@@H](O)[C@H](O)[C@@H]3O)CC(=O)N(CCO[C@H]3O[C@H](CO)[C@@H](O)[C@H](O)[C@@H]3O)CCO[C@H]3O[C@H](CO)[C@@H](O)[C@H](O)[C@@H]3O)C(=O)N[C@H](C(=O)O)[C@@H](C)O)[C@@H](C)O)CSSC[C@@H](C(=O)N[C@@H](CC(N)=O)C(=O)O)NC(=O)[C@H](Cc3ccc(O)cc3)NC(=O)[C@H](CC(N)=O)NC(=O)[C@H](CCC(=O)O)NC(=O)[C@H](CC(C)C)NC(=O)[C@H](CCC(N)=O)NC(=O)[C@H](Cc3ccc(O)cc3)NC(=O)[C@H](CC(C)C)NC(=O)[C@H](CO)NC2=O)NC1=O)C(C)C [IOC-32],–,2.58
